# Assay results published in paper PMC6900016, “Synthesis of Indomorphan Pseudo‐Natural Product Inhibitors of Glucose Transporters GLUT‐1 and ‐3” (Angewandte Chemie (International Ed. in English), 2019).
# System: HCT116
# Assay: cells
# Design: 2-deoxyglucose uptake inhibition, semi-automated resazurin/diaphorase fluorescence read-out of 2DG6P
# Details: Homo sapiens, HCT-116, 0.5 h; 2DG uptake
# Description: Resazurin-based 2DG uptake assay (semi-automated high throughput) All buffers, reagents and steps were identical with those described for the manual screening Washing and [compound left out] addition steps were done using an automated cell washer or a multidrop device, respectively. Screening was performed in a 384-well plates. 15,000 HCT116 cells/well seeded into 384-well black-walled, clear bottomed plates (CellBIND, Corning) and incubated overnight. Compounds were added at 30 µM (final concentration for screening or serial dilutions staring from 30 µM for IC50 determinations) from DMSO stocks using the acoustic nanoliter dispenser ECHO 520. Fluorescence intensity was read from the bottom with a SpectraMax Paradigm Multi-Mode Microplate Reader (Molecular devices) using SUPPORTING INFORMATION 259 control (which was set to 100 %) and cells without 2DG (set to 0 %) using Graph Pad Prism 5 or 6 software and IC50 values were determined using a four-parameter fit. The observed difference in the obtained IC50 values for Glupin in the automated screening vs. manually performed assay is most likely attributed to the minituarization that is required for high-troughput screening and usually requires different plate format (384 vs. 96-well plates) and different cell number. In this case, the automated assay was performed in 384-well plates (vs. 96-well plates for the manual assay) with 15,000 cells per well (vs. 40,000 cells per well in the 96-well plates). For kinetic measurements, 15,000 cells were seeded into black CellBIND 384-well plates (Corning) and allowed to attach overnight. Then, the plates were washed 3X with KRB buffer containing 0.1%BSA and treated with different concentrations of 2DG (0-60mM) and Glupin (0-1µM) for 30s to 30min. The uptake was determined using the resazurin/diaphorase system as described above. 2DG uptake was stopped by aspirating the 2DG solution followed by quick wash with ice-cold KRB buffer (0.1 % BSA). Km and Vmax were determined by fitting the data according to Michaelis-Menten using non-linear fitting. The glucose uptake assay monitored the inhibition of 2‐deoxyglucose (2DG) uptake as described by Yamamoto et al.25 Briefly, 2DG uptake is determined by quantification of the 2DG‐6‐phosphate (2DG6P) that accumulates inside the cells by using the diaphorase‐resazurin/‐resorufin system (see Figure S7 a).
row,SMILES,IC50 [nM]
1,"CCOC(=O)Cn1c2c(c3ccccc31)CC1CC2C(OC(C)=O)CN1C(=O)c1cccnc1SC (racemic) [5b, (±)-Ethyl 2-(5-acetoxy-3-(2-(methylthio)nicotinoyl)-1,2,3,4,5,6-hexahydro-7H-2,6-methanoazocino[5,4-b]indol-7-yl)acetate]",53 ± 23
2,"CCOC(=O)Cn1c2c(c3ccccc31)CC1CC2C(OC)CN1C(=O)c1cccnc1NC(=O)C(C)(C)C (racemic) [5am, (±)-Ethyl 2-(5-methoxy-3-(2-pivalamidonicotinoyl)-1,2,3,4,5,6-hexahydro-7H-2,6-methanoazocino[5,4-b]indol-7-yl)acetate]",> 30000
3,"CCOC(=O)Cn1c2c(c3ccccc31)CC1CC2C(OC)CN1C(=O)c1cncnc1 (racemic) [5ap, (±)-Ethyl 2-(5-methoxy-3-(pyrimidine-5-carbonyl)-1,2,3,4,5,6-hexahydro-7H-2,6-methanoazocino[5,4-b]indol-7-yl)acetate]",14000 ± 5000
4,CNC(=O)Cn1c2c(c3ccccc31)CC1CC2C(OC)CN1C(=O)Nc1cccc(C(F)(F)F)c1 (stereo not shown) [5az],> 30000
5,"CCOC(=O)Cn1c2c(c3ccccc31)CC1CC2C(OC)CN1C(=O)c1cc(C(F)(F)F)cnc1SC (racemic) [5y, (±)-Ethyl 2-(5-methoxy-3-(2-(methylthio)-5-(trifluoromethyl)nicotinoyl)-1,2,3,4,5,6-hexahydro-7H-2,6-methanoazocino[5,4-b]indol-7-yl)acetate]",14000 ± 4000
6,"CCOC(=O)Cn1c2c(c3ccccc31)CC1CC2C(OC)CN1C(=O)c1ccncc1 (racemic) [5ao, (±)-Ethyl 2-(3-isonicotinoyl-5-methoxy-1,2,3,4,5,6-hexahydro-7H-2,6-methanoazocino[5,4-b]indol-7-yl)acetate]",13000 ± 3000
7,"COC1CN(C(=O)c2cccnc2SC)C2Cc3c(n(CC(=O)O)c4ccccc34)C1C2 (racemic) [5n, (±)-2-(5-methoxy-3-(2-(methylthio)nicotinoyl)-1,2,3,4,5,6-hexahydro-7H-2,6-methanoazocino[5,4-b]indol-7-yl)acetic acid]",10000 ± 4000
8,COC1CN(C(=O)c2cnccn2)C2Cc3c(n(CC(N)=O)c4ccccc34)C1C2 (stereo not shown) [5ax],> 30000

# Continued, values first:
row,IC50 [nM],SMILES
1,2000 ± 400,CCOC(=O)Cn1c2c(c3ccccc31)CC1CC2C(OC)CN1C(=O)c1cnccn1 (stereo not shown) [5aw]
2,230 ± 50,"CCOC(=O)Cn1c2c(c3ccccc31)CC1CC2C(OC)CN1C(=O)c1cccnc1OC (racemic) [5v, (±)-Ethyl 2-(5-methoxy-3-(2-methoxynicotinoyl)-1,2,3,4,5,6-hexahydro-7H-2,6-methanoazocino[5,4-b]indol-7-yl)acetate]"
3,55 ± 17,CCOC(=O)Cn1c2c(c3ccccc31)CC1CC2C(OC)CN1C(=O)c1cccnc1SC (racemic) [(±)-Glupin]
4,3000 ± 400,"CCOC(=O)Cn1c2c(c3ccccc31)CC1CC2C(OC)CN1C(=O)c1cccs1 (racemic) [5aq, (±)-Ethyl 2-(5-methoxy-3-(thiophene-2-carbonyl)-1,2,3,4,5,6-hexahydro-7H-2,6-methanoazocino[5,4-b]indol-7-yl)acetate]"
5,210 ± 90,"CCOC(=O)Cn1c2c(c3cccc(Cl)c31)CC1CC2C(OC)CN1C(=O)c1cccnc1SC (racemic) [5h, (±)-Ethyl 2-(8-chloro-5-methoxy-3-(2-(methylthio)nicotinoyl)-1,2,3,4,5,6-hexahydro-7H-2,6-methanoazocino[5,4-b]indol-7-yl)acetate]"
6,190 ± 120,"CCCSc1ncccc1C(=O)N1CC(OC)C2CC1Cc1c2n(CC(=O)OCC)c2ccccc12 (racemic) [5ai, (±)-Ethyl 2-(5-methoxy-3-(2-(propylthio)nicotinoyl)-1,2,3,4,5,6-hexahydro-7H-2,6-methanoazocino[5,4-b]indol-7-yl)acetate]"
7,180 ± 60,"CCOC(=O)Cn1c2c(c3ccccc31)CC1CC2C(OC)CN1C(=O)c1cccnc1Br (racemic) [5aj, (±)-Ethyl 2-(3-(2-bromonicotinoyl)-5-methoxy-1,2,3,4,5,6-hexahydro-7H-2,6-methanoazocino[5,4-b]indol-7-yl)acetate]"
8,3160,CCOC(=O)Cn1c2c(c3ccccc31)CC1CC2C(OC)CN1C(=O)N1CCOCC1 (stereo not shown) [5r]
